Measurements reported in US5616570A, “Use of non-absorbable synthetic sulfated polysaccharides to decrease cholesterol absorbtion” (priority 1994, dated 1997).
Read-outs that look alike come from different tables or passages of the source.

Experiments:
[1] = biological target: 52 kDa human pancreatic triglyceride lipage; conditions: literature; cited from earlier work
[2] = biological target: cholesterol esterase from rat; conditions: Borgstrom 1988; water soluble artificial and colorimetric substrates; cited from earlier work
[3] = biological target: T1, Human pancreatic cholesterol esterase (Homo sapiens, UniProt P19835); test: Inhibition of human pancreatic cholesterol esterase, cholesteryl 14C-oleate hydrolysis; type: biochemical
T1 construct: Human pancreatic cholesterol esterase was purified as described by Bosner et al; from tissue; host or cells: human pancreas (purified to homogeneity)
T1 sequence (P19835 21-753): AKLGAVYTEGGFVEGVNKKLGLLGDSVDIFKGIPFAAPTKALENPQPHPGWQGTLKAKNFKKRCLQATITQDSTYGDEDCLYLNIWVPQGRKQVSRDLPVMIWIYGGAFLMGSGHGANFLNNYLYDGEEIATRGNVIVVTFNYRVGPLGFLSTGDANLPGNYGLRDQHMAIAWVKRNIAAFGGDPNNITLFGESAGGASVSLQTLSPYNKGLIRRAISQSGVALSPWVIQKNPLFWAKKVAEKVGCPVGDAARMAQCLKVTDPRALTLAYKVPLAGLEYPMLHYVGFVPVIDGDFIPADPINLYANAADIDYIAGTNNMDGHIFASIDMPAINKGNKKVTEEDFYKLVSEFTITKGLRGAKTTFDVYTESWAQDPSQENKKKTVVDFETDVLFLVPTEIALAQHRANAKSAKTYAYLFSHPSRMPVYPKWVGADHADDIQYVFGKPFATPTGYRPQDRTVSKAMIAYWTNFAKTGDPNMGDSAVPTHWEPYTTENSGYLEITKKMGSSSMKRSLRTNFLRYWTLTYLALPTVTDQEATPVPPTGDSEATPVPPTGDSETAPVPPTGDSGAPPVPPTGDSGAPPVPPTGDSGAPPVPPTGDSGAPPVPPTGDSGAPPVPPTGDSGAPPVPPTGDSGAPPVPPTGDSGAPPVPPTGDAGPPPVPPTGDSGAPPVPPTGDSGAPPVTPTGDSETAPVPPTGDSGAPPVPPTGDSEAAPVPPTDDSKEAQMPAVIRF

[4] = biological target: human 100 kDa cholesterol esterase; test: Inhibition of triolein hydrolysis by human 100 kDa cholesterol esterase; type: biochemical; conditions: Table 3; triolein as substrate
Description: Alginic acid from Macrocystis pyrifera (kelp) was dissolved in water at a concentration of 1 mg/ml. This stock solution was used to prepare various polysaccharide concentrations down to 10^-5 mg/ml. Human pancreatic cholesterol esterase was purified as described by Bosner et al., Proc. Nat'l, Acad, Sci., 85, 7438 (1988). To measure cholesterol esterase inhibition by alginic acid, 50 μl of cholesterol esterase (10 μg/ml), 75 μl of phosphatidylcholine vesicles containing cholesteryl ^14 C-oleate (1 mM 2,000 CPM/nmole), 25 μl of 100 mM taurocholate, 120 μl of 150 mM Tris, pH 7.5 and 30 μl of test alginic acid solution were incubated at 37° C. for fifteen minutes. The assay was quenched by placing the reaction vessels in a 4° C. ice bath and by adding 0.6 ml of 0.3 N NaOH and 3 ml of benzene/chloroform/methanol (1.0/1.2/0.5). The quenched reactions were vortexed for 30 seconds, centrifuged at 3,000 g for 15 minutes and 1 ml of the upper aqueous phase was added to 7 ml of Aquasol-2 (DuPont) with 0.025 ml of 6 N HCl. These mixtures were vortexed for one minute and counted for ^14 C-oleate. The counts were compared to a sample which contained cholesterol esterase but no alginic acid to determine the percentage of inhibition.
(The same assay procedure was used as described in Part I, only triolein was used instead of cholesteryl oleate.) As shown in the table below, the IC50 for inhibition of triolein hydrolysis is nearly the same as that for cholesteryl oleate hydrolysis.

cholesterol esterase [5] = test: Inhibition of cholesterol oleate hydrolysis by cow pancreatic cholesterol esterase; type: biochemical; conditions: enzyme from the cow
From the text: (§1) These sulfated polysaccharides are also inhibitors of animal pancreatic cholesterol esterase.

cholesterol esterase [6] = test: Inhibition of cholesterol oleate hydrolysis by pig pancreatic cholesterol esterase; type: biochemical; conditions: enzyme from pig pancreas
From the text: as §1

cholesterol esterase [7] = test: Inhibition of cholesterol oleate hydrolysis by rat pancreatic cholesterol esterase; type: biochemical; conditions: enzyme from rat pancreas
From the text: as §1

cholesterol esterase [8] = test: Inhibition of cholesterol oleate hydrolysis by rabbit pancreatic cholesterol esterase; type: biochemical; conditions: enzyme from rabbit pancreas
From the text: as §1

[9] = tested on: Colonic adenocarcinoma cells (CaCo-2); test: Cholesterol esterase catalyzed cholesterol uptake by CaCo-2 cells; type: cell-based; conditions: CaCo-2, bovine 72 kDa cholesterol esterase
Description: Colonic adenocarcinoma cells (CaCo-2, American Type Culture Collection) were grown to a density of 2×10^6 cells on […] coverslips in Dulbecco's Moditied Eagle's Medium containing 10% (v/v) lipoprotein depleted serum. The coverslips were washed with phosphate buffered saline (PBS) and transferred to 35 mm wells containing 1.0 ml PBS, 2 mM taurocholate and 1% bovine serum albumin. The cells were then incubated at 37° C. with 0.01 uCi of ^3 H cholesterol and 0.01 uCi of ^14 C-cholesteryl oleate, which were embedded in phosphatidylcholine vesicles. The control wells received no cholesterol esterase while the experimental set received bovine 72 kDa cholesterol esterase. At various incubation times the coverslips were removed, washed three times with PBS, and the cells were collected by scraping and washing with 250 mM tris glycine buffer (pH 8.8) containing 0.1% SDS. The cells were collected by centrifugation and the pellet was heated at 100° C. for five minutes and then sonicated for ten minutes. The uptake of cholesterol, either from free sterol or from cholesteryl oleate, was determined by scintillation counting for ^3 H or ^14 C, respectively.

[10] = In vivo cholesterol uptake in cholesteryl oleate fed rabbit, nasogastric dosing
Description: Inhibition of cholesterol uptake from either free cholesterol or from cholesteryl oleate was examined in vivo using cellulose sulfate. A rabbit which had been fed cholesteryl oleate for six weeks was fasted for twelve hours and a nasogastric cube was inserted into its stomach. Five ml of a cellulose sulfate solution (100 mg/ml) in Tris buffer were added followed by 10 ml of 20 uCi of ^3 H cholesterol incorporated in phosphatidylcholine vesicles and 10 ml of 20 uCi of ^14 C cholesteryl oleate. The nasogastric tube was then flushed with an additional 5 ml of cellulose sulfate solution (100 mg/ml). After the tube was removed, blood was drawn from an ear vein as a function of time and 100 μl of plasma was counted for ^14 C and ^3 H. As shown, cellulose sulfate inhibited by 85% the uptake of either free cholesterol or cholesterol derived from cholesteryl oleate (FIG. 5).

[11] = Serum radiolabeled cholesterol in rabbit fed cellulose sulfate chow; type: in vivo, New Zealand White rabbit; conditions: chow with 0.5% cellulose sulfate
From the text: A New Zealand White rabbit was maintained on regular rabbit chow. Two days before the experiment began the animal was fed chow to which cellulose sulfate had been added to give a final concentration of 0.5%. After 12 hrs. on regular chow then, the experiment began with the administration of ^14 C-cholesteryl oleate as described above. The animal was then allowed to eat and drink regular chow in a normal manner. Blood samples were withdrawn from an ear vein and the radiolabeled cholesterol measured by scintillation counting. […] In contrast, in the control animal, label appears only two hours after its administration.

cholesterol esterase [12] = test: Stability under baking conditions: cholesterol esterase inhibition by muffin supernatant; conditions: retention of inhibitory activity
Description: The sulfated polysaccharides described here retain their inhibitory activity for prolonged periods at elevated temperatures. […] For example, 109 mg of cellulose sulfate were added to 198 gm (7 oz) of corn muffin mix (Gold Medal,) and the solid ingredients were thoroughly mixed together. After the addition of one egg and one third cup milk, the muffin mix was stirred fifteen times. The mixture was poured into nine muffin tins and baked for fifteen minutes in a 400° oven. The next day one muffin was broken up, added to 100 ml of water and allowed to stand for fifteen minutes. The mixture was centrifuged and the clear supernatant was assayed for the presence of cholesterol esterase inhibition. The IC50 of this solution was achieved when this solution was diluted 10^3 -10^4 times.

cholesterol esterase [13] = conditions: Bosner et al., 1988; cited from earlier work
[14] = Table 3, cholesteryl oleate as substrate, read-out: IC50 (nM) Cholesteryl Oleate
[15] = cholesteryl oleate hydrolysis, molar value based on assumed polymer molecular weight, read-out: IC50

For CCCCCCCCCCC[C@@H](C[C@@H]1OC(=O)[C@H]1CCCCCC)OC(=O)[C@H](CC(C)C)NC=O [tetrahydrolipstatin], the Ki [1] is given as 100 nM and the Ki [2] is given as 100000 nM.
With Alginic acid [reference compound] the IC50 ([3]; Table 1, read-out: IC50) was 20 nM, the “Enhancement Factor” value ([3]; Table 1, relative to alginic acid) was 1.0 and the IC50 [3, 14] was 20 nM. It also gave an IC50 ([3]; cholesteryl oleate hydrolysis) of 4 µg/mL, an IC50 [3, 15] of 20 nM and an IC50 [4] of 42 nM.
Cellulose Sulfate showed an IC50 ([3]; Table 2, read-out: IC50) of 0.02 nM, an IC50 [3, 14] of 0.02 nM and an IC50 [3, 15] of 0.02 nM. For the same molecule, the IC50 [4] was 0.06 nM, the Ki (cholesterol esterase [5]) was 100 nM and the “inhibition of cholesterol oleate hydrolysis” value (cholesterol esterase [6]) was “inhibits”. The “inhibition of cholesterol oleate hydrolysis” value (cholesterol esterase [7]) was “inhibits”, the “inhibition of cholesterol oleate hydrolysis” value (cholesterol esterase [8]) was “inhibits” and the “uptake of cholesterol derived from cholesteryl oleate by the cells” value ([9]; FIG. 4a) was “markedly inhibits cholesterol uptake”. The “uptake of free cholesterol by the cells” value ([9]; FIG. 4b) was “markedly inhibits cholesterol uptake”, the “inhibition of uptake of free cholesterol” value ([10]; rabbit, nasogastric cellulose sulfate 100 mg/ml, 3H cholesterol in plasma, FIG. 5) was 85% and the “inhibition of uptake of cholesterol derived from cholesteryl oleate” value ([10]; rabbit, nasogastric cellulose sulfate 100 mg/ml, 14C in plasma, FIG. 5) was 85%. The “absorption of free cholesterol” value ([10]; rabbits) was “decreases absorption of free cholesterol”, the “decrease of cholesterol absorption” value ([10]; rabbits fed cholesterol oleate) was “over 70%” and the “time until cholesterol appears in serum after administration of the label” value [11] was “four”. The “reduction of level of serum cholesterol compared to control rabbit” value ([11]; 14C-cholesteryl oleate label, FIG. 7) was 50% and the “stability at elevated temperatures / baking conditions” value (cholesterol esterase [12]) was “stable under baking conditions”.
Molecule Chitin Sulfate has an IC50 ([3]; Table 2, read-out: IC50) of 0.16 nM, an IC50 [3, 14] of 0.3 nM and an IC50 [3, 15] of 0.3 nM. For the same molecule, the IC50 [4] was 0.35 nM.
In the case of Chitosan Sulfate, the IC50 ([3]; Table 2, read-out: IC50) is reported as 0.16 nM, the IC50 [3, 14] is reported as 0.3 nM and the IC50 [3, 15] is reported as 0.3 nM. It also gave an IC50 [4] of 0.85 nM.
For chondroitan sulfate, the “interaction with cholesterol esterase” value (cholesterol esterase [13]) is given as “does not interact with cholesterol esterase”.
With “pectin [native, unsulfated pectin, reference compound]” the “inhibition of cholesterol esterase (in words)” value ([3]; hydrolysis of cholesterol esters) was “does not inhibit cholesterol esterase”.
